In ChEMBL document CHEMBL1128481, “Synthesis, structure elucidation, and biochemical evaluation of 7 alpha- and 7 beta-arylaliphatic-substituted androst-4-ene-3,17-diones as inhibitors of aromatase” (J Med Chem, 1995):

Legend:
Aromatase [1] = target: T1, Aromatase (Homo sapiens, UniProt P11511)
T1 sequence (P11511 whole entry): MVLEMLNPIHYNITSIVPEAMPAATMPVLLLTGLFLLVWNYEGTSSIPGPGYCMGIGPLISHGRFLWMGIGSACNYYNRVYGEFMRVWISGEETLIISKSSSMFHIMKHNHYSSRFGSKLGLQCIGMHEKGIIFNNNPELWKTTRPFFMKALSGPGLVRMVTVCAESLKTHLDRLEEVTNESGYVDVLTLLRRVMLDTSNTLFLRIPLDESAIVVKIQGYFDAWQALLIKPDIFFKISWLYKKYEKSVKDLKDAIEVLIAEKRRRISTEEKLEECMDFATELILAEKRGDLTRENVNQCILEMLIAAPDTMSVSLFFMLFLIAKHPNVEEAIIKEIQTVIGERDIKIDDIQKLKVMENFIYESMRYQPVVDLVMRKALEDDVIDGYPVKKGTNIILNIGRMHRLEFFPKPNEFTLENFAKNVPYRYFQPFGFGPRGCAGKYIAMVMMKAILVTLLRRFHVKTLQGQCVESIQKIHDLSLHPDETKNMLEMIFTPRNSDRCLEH
Description: Inhibition of human placental Cytochrome P450 19A1 at 250 nM

Aromatase [2] = target: T1, Aromatase; remark: listed apart in the source
Aromatase [3] = target: T1, Aromatase; remark: listed apart in the source
Description: Apparent binding affinity for human placental Cytochrome P450 19A1

Aromatase [4] = target: T1, Aromatase; test: Inhibition of human placental Cytochrome P450 19A1 at 100 nM

SMILES | inhibition at 0.25 µM (Aromatase [1]) [%] | inhibition at 0.1 µM (Aromatase [2]) [%] | Ki (Aromatase [3]) [nM] | inhibition at 0.1 µM (Aromatase [4]) [%]
C[C@]12CC[C@H]3[C@@H]([C@H](Cc4ccccc4)CC4=CC(=O)CC[C@@]43C)[C@@H]1CC[C@@H]2O | 72.5 | 59.4 | 39.5 | 
C[C@]12CCC(=O)C=C1C[C@@H](Sc1ccc(N)cc1)[C@@H]1[C@@H]2CC[C@]2(C)C(=O)CC[C@@H]12 | 83.9 |  |  | 70.6
CC12CCC3C(C1CCC2=O)[C@H](Cc1ccccc1)CC1=CC(=O)CCC13C (stereo not given in full) | 81.5 | 64.3 | 18.9 | 
CC12CCC3C(C1CCC2=O)[C@H](CCc1ccccc1)CC1=CC(=O)CCC13C (stereo not given in full) | 81.6 | 66.1 | 13.1 | 
C[C@]12CC[C@H]3[C@@H]([C@H](CCc4ccccc4)CC4=CC(=O)CC[C@@]43C)[C@@H]1CC[C@@H]2O | 56.7 | 45.8 | 36 | 
C[C@]12CCC(=O)C=C1C[C@H](CCc1ccccc1)[C@@H]1[C@@H]2CC[C@]2(C)C(=O)CC[C@@H]12 | 67.8 | 55.7 | 40.2 | 
C[C@]12CCC(=O)C=C1C[C@H](Cc1ccccc1)[C@@H]1[C@@H]2CC[C@]2(C)C(=O)CC[C@@H]12 | 68.9 | 46.7 | 44.5 | 
